One data set has as its target human TAAR1 (Homo sapiens (Human), UniProt Q96RJ0). The data set can be described thus: cAMP functional assay in HEK293 cells expressing human TAAR1. Type of data set: cell-based. Particulars: for pEC50: cAMP, HEK293 cells expressing human TAAR1, read-out: hTAAR1 EC50. The procedure: The Expand High Fidelity PCR System (Roche Diagnostics) was used with 1.5 mM Mg^2+ and purified PCR products were cloned into pCR2.1-TOPO cloning vector (Invitrogen) following the instructions of the manufacturer. PCR products were subcloned into the pIRESneo2 vector (BD Clontech, Palo Alto, Calif.), and expression vectors were sequence verified before introduction in cell lines.
HEK293 cells (ATCC #CRL-1573) were cultured essentially as described by Lindemann et al. (2005). For the generation of stably transfected cell lines HEK293 cells were transfected with the pIRESneo2 expression plasmids containing the TAAR coding sequences (described above) with Lipofectamine 2000 (Invitrogen) according to the instructions of the manufacturer, and 24 hrs post transfection the culture medium was supplemented with 1 mg/ml G418 (Sigma, Buchs, Switzerland). After a culture period of about 10 d clones were isolated, expanded and tested for responsiveness to trace amines (all compounds purchased from Sigma) with the cAMP Biotrak Enzyme immunoassay (EIA) System (Amersham) following the non-acetylation EIA procedure provided by the manufacturer.
cAMP measurements were performed as described previously (Revel et al., Proc. Natl. Acad. Sci. USA 2011, 108, 8485-8490). In brief, cells that expressed human TAAR1 were plated on 96-well plates (BIOCOAT 6640; Becton Dickinson, Allschwil, Switzerland) and incubated for 20 h at 37° C. Prior to stimulation of the cells with a broad concentration range of agonists for 30 min at 37° C., the cells were washed with PBS and preincubated with PBS that contained 1 mM 3-isobutyl-1-methylxanthine for 10 min at 37° C. and 5% CO2. Stimulation with 0.2% DMSO was set as the basal level, and the effect of 30 μM β-PEA was set as the maximal response. […] Finally, the plates were read with a luminometer (1420 Multilabel counter; PerkinElmer, Schwerzenbach, Switzerland), and the amount of cAMP was calculated. […]

The next data set deals with human DAT (Homo sapiens (Human), UniProt Q01959). The data set can be described thus: Binding to dopamine transporter (DAT) in vitro, [3H]-WIN35,428 SPA. As to the method: Binding to dopamine transporter (DAT) in vitro. Human embryonic kidney (HEK) 293 cells (Invitrogen, Zug, Switzerland) stably transfected with human DAT were cultured. The cells were collected and washed three times with phosphate-buffered saline (PBS). The pellets were frozen at −80° C. The pellets were then resuspended in 400 ml of 20 mM HEPES-NaOH, pH 7.4, that contained 10 mM EDTA at 4° C. […] Aliquots of the membrane stocks were frozen at −80° C. All assays were performed at least three times. The test compounds were diluted in […] of binding buffer (252 mM NaCl, 5.4 mM KCl, 20 mM Na2HPO4, 3.52 mM KH2PO4, pH 7.4) and 10 point dilution curves were made and transferred to 96-well white polystyrene assay plates (Sigma-Aldrich, Buchs, Switzerland). […] Twenty microliters of binding buffer alone in the assay plate defined the total binding, whereas binding in the presence of 10 μM indatraline defined nonspecific binding. Frozen DAT membrane stocks were thawed and resuspended to a concentration of approximately 0.04 mg protein/ml binding buffer (1:1 diluted in H2O) using a polytron tissue homogenizer. The membrane homogenates (40 μg/ml) were then lightly mixed for 5-30 min with polyvinyl toluene […] wheat germ agglutinin-coated scintillation proximity assay (WGASPA; Amersham Biosciences) beads at 7.7 mg beads/ml homogenate. One hundred thirty microliters of the membrane/bead mixture were added to each well of the assay plate that contained radioligand and test compounds (final volume in each well, 200 μl) to start the assay, which was incubated for approximately 2 h at room temperature with agitation. The assay plates were then counted in the PVT SPA counting mode of a Packard Topcount. […] Non-linear regression was used to fit the data to sigmoid curves and determine IC50 values for binding and uptake. Ki values for binding and uptake were calculated using the following Cheng-Prusoff equation: Ki=IC50/(1+[S]/Km).

A further data set addresses hERG potassium channels (Homo sapiens (Human), UniProt Q12809). The data set can be described thus: Whole-cell patch-clamp on hERG potassium channels in stably transfected CHO cells. Type of data set: cell-based. As to the method: The whole-cell patch-clamp technique was used to investigate the effects of the test items on hERG (human-ether-a-go-go related gene) potassium channels in stably transfected CHO cells near physiological temperature (36±1° C.). The effects of compounds on hERG K^+-current parameters were evaluated at 4 concentrations (0.3-3-30-300 μM) in at least 3 CHO cells stably expressing the hERG channel. For electrophysiological measurements cells were seeded onto 35 mm sterile culture dishes containing 2 ml culture medium without Hygromycin B. Cells were cultivated at a density that enabled single cells (without visible connections to neighbouring cells) to be measured. Cells were incubated at 37° C. in a humidified atmosphere with 5% CO2 (rel. humidity about 95%). The cells were continuously maintained in and passaged in sterile culture flasks containing nutrient mixture F-12 (DMEM/F-12 with L-Glutamine) supplemented with 10% foetal bovine serum and 10% penicillin/streptomycin solution. […] The 35 mm culture dishes upon which cells were seeded at a density allowing single cells to be recorded were placed on the dish holder of the microscope and continuously perfused (at approximately 1 ml/min) with the bath solution (sodium chloride 150 mM, potassium chloride 4 mM, calcium chloride 1.2 mM, magnesium chloride 1 mM, HEPES 10 mM, pH (NaOH) 7.4) at near physiological temperature (36±1° C.). After formation of a Gigaohm seal between the patch electrodes and individual hERG stably transfected CHO cells (pipette resistance range: 2.0 MΩ-7.0 MΩ; seal resistance range: >1 GΩ) the cell membrane across the pipette tip was ruptured to assure electrical access to the cell interior (whole-cell patch-configuration). In case the quality of the seal was poor, the process of seal formation was repeated with a different cell and a new pipette. […] This voltage protocol was run at least 10 times at intervals of 10 s. If current density was judged to be too low for measurement, another cell was recorded. […] During wash-in of the test item the voltage protocol indicated above was run continuously again at 10 s intervals until the steady-state level of block was reached. The four test item concentrations of the compound were applied sequentially to 3 cells in a cumulative manner. […] Based on the IC50 value the IC20 was estimated. Each concentration of the test item was analyzed in three experiments (n=3).

The target in a further data set is mutant DAT (Mus musculus (Mouse), UniProt Q61327, A109V/F105C/L104V). Particulars: cocaine-insensitive DAT; cited from earlier work.

pEC50, pIC50, pKi: −log10 of the molar value. Where two headings read alike, the source gives them in different places.

hERG potassium channels, sequence (Q12809 whole entry): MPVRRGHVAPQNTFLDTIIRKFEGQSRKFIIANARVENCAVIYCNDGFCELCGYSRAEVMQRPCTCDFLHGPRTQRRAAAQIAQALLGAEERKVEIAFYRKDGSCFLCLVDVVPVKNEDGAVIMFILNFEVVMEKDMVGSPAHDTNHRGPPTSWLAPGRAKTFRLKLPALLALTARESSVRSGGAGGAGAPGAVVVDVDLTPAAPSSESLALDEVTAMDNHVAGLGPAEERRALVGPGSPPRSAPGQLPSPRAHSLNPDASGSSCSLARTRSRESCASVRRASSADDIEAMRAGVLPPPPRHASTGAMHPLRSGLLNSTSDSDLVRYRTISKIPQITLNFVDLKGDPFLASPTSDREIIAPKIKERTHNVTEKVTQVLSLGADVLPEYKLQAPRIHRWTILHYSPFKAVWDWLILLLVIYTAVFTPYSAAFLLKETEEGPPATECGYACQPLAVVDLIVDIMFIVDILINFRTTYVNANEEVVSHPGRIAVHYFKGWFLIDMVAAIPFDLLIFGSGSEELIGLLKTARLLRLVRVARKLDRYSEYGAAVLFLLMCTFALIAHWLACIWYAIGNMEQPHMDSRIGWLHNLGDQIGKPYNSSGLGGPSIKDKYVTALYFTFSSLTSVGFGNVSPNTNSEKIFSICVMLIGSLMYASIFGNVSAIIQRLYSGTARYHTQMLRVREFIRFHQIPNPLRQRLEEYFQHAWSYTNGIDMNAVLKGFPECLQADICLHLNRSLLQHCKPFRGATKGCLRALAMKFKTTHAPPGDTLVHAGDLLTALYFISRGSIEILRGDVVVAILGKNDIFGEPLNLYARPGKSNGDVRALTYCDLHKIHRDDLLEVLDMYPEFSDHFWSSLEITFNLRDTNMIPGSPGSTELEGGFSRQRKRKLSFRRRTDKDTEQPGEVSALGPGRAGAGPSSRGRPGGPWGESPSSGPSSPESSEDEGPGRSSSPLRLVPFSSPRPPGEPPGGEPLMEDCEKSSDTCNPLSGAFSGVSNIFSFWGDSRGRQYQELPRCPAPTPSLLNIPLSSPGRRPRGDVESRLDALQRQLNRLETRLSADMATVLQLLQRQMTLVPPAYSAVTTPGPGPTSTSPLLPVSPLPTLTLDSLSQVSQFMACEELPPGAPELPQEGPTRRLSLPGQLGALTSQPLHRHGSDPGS
human DAT, sequence (Q01959 whole entry): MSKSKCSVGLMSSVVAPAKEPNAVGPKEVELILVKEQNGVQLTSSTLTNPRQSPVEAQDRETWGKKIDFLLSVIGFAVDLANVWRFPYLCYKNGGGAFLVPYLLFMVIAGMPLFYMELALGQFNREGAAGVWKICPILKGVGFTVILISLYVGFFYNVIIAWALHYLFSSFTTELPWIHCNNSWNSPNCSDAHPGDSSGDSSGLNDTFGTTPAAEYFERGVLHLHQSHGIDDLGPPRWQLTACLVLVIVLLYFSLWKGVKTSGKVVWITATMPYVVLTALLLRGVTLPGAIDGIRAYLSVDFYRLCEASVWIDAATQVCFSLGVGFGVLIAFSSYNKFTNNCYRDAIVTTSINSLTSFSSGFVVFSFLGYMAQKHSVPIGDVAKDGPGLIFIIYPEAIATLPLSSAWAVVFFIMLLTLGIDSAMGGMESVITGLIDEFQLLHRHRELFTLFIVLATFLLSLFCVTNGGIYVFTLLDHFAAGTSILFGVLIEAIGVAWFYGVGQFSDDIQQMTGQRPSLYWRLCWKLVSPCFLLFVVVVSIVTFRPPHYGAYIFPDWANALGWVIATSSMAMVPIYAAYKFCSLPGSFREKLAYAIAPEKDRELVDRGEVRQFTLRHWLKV
human TAAR1, sequence (Q96RJ0 whole entry): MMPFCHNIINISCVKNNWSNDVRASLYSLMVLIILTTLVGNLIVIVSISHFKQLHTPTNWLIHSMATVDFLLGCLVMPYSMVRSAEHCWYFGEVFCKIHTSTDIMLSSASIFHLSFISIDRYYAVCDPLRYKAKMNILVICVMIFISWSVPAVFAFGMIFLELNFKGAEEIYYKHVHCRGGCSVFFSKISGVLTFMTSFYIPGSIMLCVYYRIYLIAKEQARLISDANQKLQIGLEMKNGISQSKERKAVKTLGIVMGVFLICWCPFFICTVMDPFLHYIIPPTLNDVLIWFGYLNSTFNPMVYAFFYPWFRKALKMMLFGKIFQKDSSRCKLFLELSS

As to “5-Chloro-N-[4-[(2S)-morpholin-2-yl]phenyl]pyridine-2-carboxamide [Example 12]”, the hTAAR1 efficacy on human TAAR1 (% agonist activity, β-phenylethylamine = 100% agonism) was 40%. Further, the pEC50 on human TAAR1 (listed as Comparative example 12) and on human TAAR1 was 6.67 each time. Besides, the “Ratio DAT Ki/hTAAR1 EC50” value at human DAT came out at 8. Further, on human DAT (DAT Ki versus hTAAR1 EC50), the “DAT selectivity ratio versus hTAAR1 EC50” value turned out to be 8 fold. At human DAT ([3H]-WIN35,428 radioligand), this compound had a pKi of 5.75. Besides, on hERG potassium channels, the “Ratio hERG IC20/hTAAR1 EC50” value is 15. The IC20 on hERG potassium channels (estimated based on the IC50 value) was 3.21 µM. In addition, at hERG potassium channels (hERG IC20 versus hTAAR1 EC50), the “hERG selectivity ratio versus hTAAR1 EC50” value was determined as 15 fold. Further, the pIC50 against hERG potassium channels (patch-clamp, CHO cells, 36±1° C.) was 4.85.
For `COC(=O)[C@H]1[C@@H](OC(=O)c2ccccc2)C[C@@H]2CC[C@H]1N2C` [cocaine], on mutant DAT, the “lower affinity of mutant DAT for cocaine relative to wild-type DAT” value is 89 fold.

Usually pEC50 stands for the negative decadic logarithm of the EC50, by convention in mol/L. One may read the pKi as the Ki on a negative log10 scale, so that one unit is a factor of ten. A low value points to a large Ki. For orientation: IC20 means the point of the concentration-response curve where the effect stands at 20%. In general, pIC50 refers to the negative decadic logarithm of the IC50, by convention in mol/L. A lower pIC50 goes with a high IC50.

The values are drawn from US11312711B2, “Morpholine derivative” (Hoffmann-La Roche Inc., priority 2016, dated 2022).
